# Experiments:
# [1] = molecular target: Cyclin-dependent kinase 8 (Homo sapiens) (UniProt P49336); test: Binding affinity to wild-type human partial length CDK8 (M1 to T360 residues) expressed in bacterial expression system assessed as residual binding level at 1 uM by Kinomescan method relative to control
# [2] = molecular target: Macrophage colony-stimulating factor 1 receptor (Homo sapiens) (UniProt P07333); test: Binding affinity to wild-type human partial length CSF1R (I564 to S939 residues) expressed in bacterial expression system assessed as residual binding level at 1 uM by Kinomescan method relative to control
# [3] = system: Proto-oncogene tyrosine-protein kinase receptor Ret (Homo sapiens), P07949 [V804L]; test: Binding affinity to human partial length RET V804L mutant (E713 to D1014 residues) expressed in bacterial expression system assessed as residual binding level at 1 uM by Kinomescan method relative to control
# [4] = molecular target: Angiopoietin-1 receptor (Homo sapiens) (UniProt Q02763); test: Binding affinity to wild-type human partial length TIE2 (N804 to T1112 residues) expressed in bacterial expression system assessed as residual binding level at 1 uM by Kinomescan method relative to control
# [5] = molecular target: Focal adhesion kinase 1 (Homo sapiens) (UniProt Q05397); test: Binding affinity to wild-type human partial length FAK (D402 to R696 residues) expressed in bacterial expression system assessed as residual binding level at 1 uM by Kinomescan method relative to control
# [6] = molecular target: Tyrosine-protein kinase Tec (Homo sapiens) (UniProt P42680); test: Binding affinity to wild-type human partial length TEC (L341 to D620 residues) expressed in bacterial expression system assessed as residual binding level at 1 uM by Kinomescan method relative to control
# [7] = molecular target: Serine/threonine-protein kinase Sgk3 (Homo sapiens) (UniProt Q96BR1); test: Binding affinity to wild-type human partial length SGK3 (M119 to L496 residues) expressed in mammalian expression system assessed as residual binding level at 1 uM by Kinomescan method relative to control
# [8] = molecular target: Rho-associated protein kinase 2 (Homo sapiens) (UniProt O75116); test: Binding affinity to wild-type human partial length ROCK2 (M1 to T431 residues) expressed in mammalian expression system assessed as residual binding level at 1 uM by Kinomescan method relative to control
# [9] = molecular target: Tyrosine-protein kinase SYK (Homo sapiens) (UniProt P43405); test: Binding affinity to wild-type human partial length SYK (D354 to N635 residues) expressed in bacterial expression system assessed as residual binding level at 1 uM by Kinomescan method relative to control
# [10] = system: Phosphatidylinositol 4,5-bisphosphate 3-kinase catalytic subunit alpha isoform (Homo sapiens), P42336 [Q546K]; test: Binding affinity to human partial length PIK3CA Q546K mutant (R108 to N1068 residues) expressed in mammalian expression system assessed as residual binding level at 1 uM by Kinomescan method relative to control
# [11] = system: Fibroblast growth factor receptor 3 (Homo sapiens), P22607 [G697C]; test: Binding affinity to human partial length FGFR3 G697C mutant (R442 to S771 residues) expressed in bacterial expression system assessed as residual binding level at 1 uM by Kinomescan method relative to control
# [12] = molecular target: Tyrosine-protein kinase Fgr (Homo sapiens) (UniProt P09769); test: Binding affinity to wild-type human partial length FGR (L233 to T529 residues) expressed in bacterial expression system assessed as residual binding level at 1 uM by Kinomescan method relative to control
# [13] = molecular target: Calcium/calmodulin-dependent protein kinase type 1 (Homo sapiens) (UniProt Q14012); test: Binding affinity to wild-type human full length CAMK1 (M1 to L370 residues) expressed in bacterial expression system assessed as residual binding level at 1 uM by Kinomescan method relative to control
# [14] = system: Mast/stem cell growth factor receptor Kit (Homo sapiens), P10721 [UNDEFINED MUTATION]; test: Binding affinity to human partial length KIT V559D/[…] double mutant (Y545 to D952 residues) expressed in bacterial expression system assessed as residual binding level at 1 uM by Kinomescan method relative to control
# [15] = molecular target: Tyrosine-protein kinase CSK (Homo sapiens) (UniProt P41240); test: Binding affinity to wild-type human full length CSK (M1 to L450 residues) expressed in bacterial expression system assessed as residual binding level at 1 uM by Kinomescan method relative to control
# [16] = molecular target: Calcium/calmodulin-dependent protein kinase kinase 1 (Homo sapiens) (UniProt Q8N5S9); test: Binding affinity to wild-type human partial length CAMKK1 (R65 to E414 residues) expressed in bacterial expression system assessed as residual binding level at 1 uM by Kinomescan method relative to control
# [17] = molecular target: Serine/threonine-protein kinase Chk1 (Homo sapiens) (UniProt O14757); test: Binding affinity to wild-type human partial length CHEK1 (M1 to G289 residues) expressed in bacterial expression system assessed as residual binding level at 1 uM by Kinomescan method relative to control
# [18] = molecular target: Protein-tyrosine kinase 6 (Homo sapiens) (UniProt Q13882); test: Binding affinity to wild-type human partial length BRK (L166 to T451 residues) expressed in bacterial expression system assessed as residual binding level at 1 uM by Kinomescan method relative to control
# [19] = molecular target: Dual specificity mitogen-activated protein kinase kinase 7 (Homo sapiens) (UniProt O14733); test: Binding affinity to wild-type human full length MKK7 (M1 to R419 residues) expressed in mammalian expression system assessed as residual binding level at 1 uM by Kinomescan method relative to control
# [20] = molecular target: Serine/threonine-protein kinase PAK 1 (Homo sapiens) (UniProt Q13153); test: Binding affinity to wild-type human partial length PAK1 (S149 to H545 residues) expressed in bacterial expression system assessed as residual binding level at 1 uM by Kinomescan method relative to control
# [21] = molecular target: LIM domain kinase 2 (Homo sapiens) (UniProt P53671); test: Binding affinity to wild-type human full length LIMK2 (M1 to P638 residues) expressed in bacterial expression system assessed as residual binding level at 1 uM by Kinomescan method relative to control
# [22] = molecular target: Serine/threonine-protein kinase MAK (Homo sapiens) (UniProt P20794); test: Binding affinity to wild-type human partial length MAK (M1 to P314 residues) expressed in bacterial expression system assessed as residual binding level at 1 uM by Kinomescan method relative to control
# [23] = molecular target: Cyclin-dependent kinase 16 (Homo sapiens) (UniProt Q00536); test: Binding affinity to wild-type human partial length PCTK1 (G160 to A474 residues) expressed in mammalian expression system assessed as residual binding level at 1 uM by Kinomescan method relative to control
# [24] = molecular target: Serine/threonine-protein kinase PLK3 (Homo sapiens) (UniProt Q9H4B4); test: Binding affinity to wild-type human partial length PLK3 (A42 to L334 residues) expressed in mammalian expression system assessed as residual binding level at 1 uM by Kinomescan method relative to control
# Tyrosine-protein kinase CSK (Homo sapiens), sequence (P41240 2-450 limits assumed): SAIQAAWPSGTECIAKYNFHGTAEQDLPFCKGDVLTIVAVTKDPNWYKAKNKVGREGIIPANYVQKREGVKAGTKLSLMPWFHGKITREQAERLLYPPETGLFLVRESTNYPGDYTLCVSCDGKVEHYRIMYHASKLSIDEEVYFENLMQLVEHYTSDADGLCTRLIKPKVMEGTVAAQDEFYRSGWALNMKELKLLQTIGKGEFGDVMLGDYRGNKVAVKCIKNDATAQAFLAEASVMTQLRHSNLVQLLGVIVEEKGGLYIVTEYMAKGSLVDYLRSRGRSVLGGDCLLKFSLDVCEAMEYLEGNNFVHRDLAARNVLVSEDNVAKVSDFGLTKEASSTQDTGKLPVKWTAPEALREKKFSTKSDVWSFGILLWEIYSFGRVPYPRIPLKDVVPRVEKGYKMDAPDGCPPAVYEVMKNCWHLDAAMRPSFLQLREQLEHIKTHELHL
# Angiopoietin-1 receptor (Homo sapiens), sequence (Q02763 whole entry, the tested form may be a part): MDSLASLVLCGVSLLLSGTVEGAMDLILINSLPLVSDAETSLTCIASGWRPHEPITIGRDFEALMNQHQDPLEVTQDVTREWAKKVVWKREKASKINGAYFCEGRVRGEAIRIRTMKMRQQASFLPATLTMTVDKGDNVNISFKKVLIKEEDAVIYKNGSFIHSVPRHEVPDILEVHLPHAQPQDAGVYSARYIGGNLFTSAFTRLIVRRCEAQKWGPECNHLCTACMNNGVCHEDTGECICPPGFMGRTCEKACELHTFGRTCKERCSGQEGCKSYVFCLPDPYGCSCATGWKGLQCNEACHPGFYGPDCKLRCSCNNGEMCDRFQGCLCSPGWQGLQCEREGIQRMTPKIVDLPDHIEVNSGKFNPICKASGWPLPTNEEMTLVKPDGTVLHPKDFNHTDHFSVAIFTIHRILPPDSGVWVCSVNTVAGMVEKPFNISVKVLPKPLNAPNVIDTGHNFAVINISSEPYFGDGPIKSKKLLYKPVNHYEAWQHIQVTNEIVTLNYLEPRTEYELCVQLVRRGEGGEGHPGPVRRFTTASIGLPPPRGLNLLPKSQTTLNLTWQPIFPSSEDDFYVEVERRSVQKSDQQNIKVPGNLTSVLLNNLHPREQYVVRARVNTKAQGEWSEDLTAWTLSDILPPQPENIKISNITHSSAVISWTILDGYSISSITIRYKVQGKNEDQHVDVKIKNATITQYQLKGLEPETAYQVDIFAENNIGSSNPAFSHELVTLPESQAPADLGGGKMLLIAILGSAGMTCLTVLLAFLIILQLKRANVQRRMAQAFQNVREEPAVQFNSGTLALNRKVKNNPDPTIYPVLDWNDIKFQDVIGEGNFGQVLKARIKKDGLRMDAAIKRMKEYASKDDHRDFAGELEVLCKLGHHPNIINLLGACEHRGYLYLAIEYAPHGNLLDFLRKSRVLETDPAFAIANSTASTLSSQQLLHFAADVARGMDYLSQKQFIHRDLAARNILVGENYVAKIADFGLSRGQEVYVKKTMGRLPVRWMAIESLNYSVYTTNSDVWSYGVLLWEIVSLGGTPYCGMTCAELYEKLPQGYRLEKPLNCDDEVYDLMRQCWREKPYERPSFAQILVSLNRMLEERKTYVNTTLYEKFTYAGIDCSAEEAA
# Cyclin-dependent kinase 8 (Homo sapiens), sequence (P49336 whole entry, the tested form may be a part): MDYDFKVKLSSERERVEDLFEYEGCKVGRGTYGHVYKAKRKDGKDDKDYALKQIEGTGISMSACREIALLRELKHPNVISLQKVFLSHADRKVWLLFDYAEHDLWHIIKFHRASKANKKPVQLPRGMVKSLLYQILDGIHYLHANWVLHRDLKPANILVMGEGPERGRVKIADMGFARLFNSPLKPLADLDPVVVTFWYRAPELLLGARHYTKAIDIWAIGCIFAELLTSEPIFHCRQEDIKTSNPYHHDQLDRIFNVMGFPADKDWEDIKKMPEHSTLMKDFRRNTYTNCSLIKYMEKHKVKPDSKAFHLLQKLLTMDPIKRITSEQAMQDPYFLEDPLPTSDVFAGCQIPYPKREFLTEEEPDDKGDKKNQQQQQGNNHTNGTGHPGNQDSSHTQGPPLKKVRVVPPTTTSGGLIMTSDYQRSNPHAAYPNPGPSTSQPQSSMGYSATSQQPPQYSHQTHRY
# Dual specificity mitogen-activated protein kinase kinase 7 (Homo sapiens), sequence (O14733 whole entry, the tested form may be a part): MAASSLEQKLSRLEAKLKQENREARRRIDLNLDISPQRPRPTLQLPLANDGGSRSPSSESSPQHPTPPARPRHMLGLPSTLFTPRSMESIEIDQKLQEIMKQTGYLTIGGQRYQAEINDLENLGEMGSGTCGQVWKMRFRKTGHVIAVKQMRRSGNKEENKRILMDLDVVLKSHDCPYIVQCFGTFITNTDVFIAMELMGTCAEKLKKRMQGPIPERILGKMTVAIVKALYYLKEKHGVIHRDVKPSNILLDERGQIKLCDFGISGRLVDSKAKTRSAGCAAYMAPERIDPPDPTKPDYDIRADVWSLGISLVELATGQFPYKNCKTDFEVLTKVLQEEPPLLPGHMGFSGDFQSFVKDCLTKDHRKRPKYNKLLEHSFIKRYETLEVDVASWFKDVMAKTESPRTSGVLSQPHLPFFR
# Serine/threonine-protein kinase MAK (Homo sapiens), sequence (P20794 whole entry, the tested form may be a part): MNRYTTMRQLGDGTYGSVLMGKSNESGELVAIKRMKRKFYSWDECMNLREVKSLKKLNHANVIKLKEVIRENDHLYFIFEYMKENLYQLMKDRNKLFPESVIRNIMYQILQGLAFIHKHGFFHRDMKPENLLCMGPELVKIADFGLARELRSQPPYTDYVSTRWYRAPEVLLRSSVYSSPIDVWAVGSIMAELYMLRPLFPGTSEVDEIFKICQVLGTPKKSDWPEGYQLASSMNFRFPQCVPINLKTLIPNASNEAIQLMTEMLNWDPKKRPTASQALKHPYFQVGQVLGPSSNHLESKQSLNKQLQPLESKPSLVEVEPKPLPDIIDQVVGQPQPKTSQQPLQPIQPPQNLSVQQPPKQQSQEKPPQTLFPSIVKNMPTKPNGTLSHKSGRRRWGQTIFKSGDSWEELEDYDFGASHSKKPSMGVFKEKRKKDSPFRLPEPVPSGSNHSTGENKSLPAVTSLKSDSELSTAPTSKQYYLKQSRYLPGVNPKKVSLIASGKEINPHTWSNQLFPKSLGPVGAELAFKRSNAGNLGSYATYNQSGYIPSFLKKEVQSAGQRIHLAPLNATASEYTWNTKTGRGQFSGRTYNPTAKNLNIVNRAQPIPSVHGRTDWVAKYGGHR
# Cyclin-dependent kinase 16 (Homo sapiens), sequence (Q00536 whole entry, the tested form may be a part): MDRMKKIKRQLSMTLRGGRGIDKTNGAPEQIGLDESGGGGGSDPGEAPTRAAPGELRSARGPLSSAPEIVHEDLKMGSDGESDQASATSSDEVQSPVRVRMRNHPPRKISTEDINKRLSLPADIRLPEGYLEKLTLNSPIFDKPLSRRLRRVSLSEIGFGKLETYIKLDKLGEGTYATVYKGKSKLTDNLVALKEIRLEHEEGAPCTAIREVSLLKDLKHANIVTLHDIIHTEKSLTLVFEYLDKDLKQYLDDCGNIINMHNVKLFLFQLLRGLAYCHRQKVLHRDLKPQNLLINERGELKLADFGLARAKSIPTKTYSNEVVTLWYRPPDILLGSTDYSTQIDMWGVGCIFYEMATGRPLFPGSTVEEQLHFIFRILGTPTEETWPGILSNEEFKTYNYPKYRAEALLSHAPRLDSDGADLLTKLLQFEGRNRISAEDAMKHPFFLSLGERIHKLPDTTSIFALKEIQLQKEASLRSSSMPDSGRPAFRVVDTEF
# LIM domain kinase 2 (Homo sapiens), sequence (P53671 whole entry, looked up, the tested form may be a part): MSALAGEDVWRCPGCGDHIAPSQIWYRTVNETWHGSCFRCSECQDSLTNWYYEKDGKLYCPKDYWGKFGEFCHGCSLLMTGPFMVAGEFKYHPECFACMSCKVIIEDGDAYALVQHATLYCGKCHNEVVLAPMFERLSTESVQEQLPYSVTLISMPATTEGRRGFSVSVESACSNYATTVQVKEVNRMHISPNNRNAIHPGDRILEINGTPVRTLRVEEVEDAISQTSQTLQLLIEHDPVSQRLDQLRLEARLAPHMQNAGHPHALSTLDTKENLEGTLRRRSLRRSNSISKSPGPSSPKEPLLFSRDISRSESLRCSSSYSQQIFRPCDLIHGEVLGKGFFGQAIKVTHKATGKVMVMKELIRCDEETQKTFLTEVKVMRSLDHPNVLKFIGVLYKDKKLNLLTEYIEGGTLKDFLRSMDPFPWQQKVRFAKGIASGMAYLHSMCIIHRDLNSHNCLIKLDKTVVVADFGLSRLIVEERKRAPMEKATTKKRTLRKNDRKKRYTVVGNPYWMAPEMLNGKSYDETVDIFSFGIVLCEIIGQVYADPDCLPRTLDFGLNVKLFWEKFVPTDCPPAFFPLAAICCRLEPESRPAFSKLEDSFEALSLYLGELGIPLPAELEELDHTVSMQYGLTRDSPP
# Serine/threonine-protein kinase PAK 1 (Homo sapiens), sequence (Q13153 whole entry, the tested form may be a part): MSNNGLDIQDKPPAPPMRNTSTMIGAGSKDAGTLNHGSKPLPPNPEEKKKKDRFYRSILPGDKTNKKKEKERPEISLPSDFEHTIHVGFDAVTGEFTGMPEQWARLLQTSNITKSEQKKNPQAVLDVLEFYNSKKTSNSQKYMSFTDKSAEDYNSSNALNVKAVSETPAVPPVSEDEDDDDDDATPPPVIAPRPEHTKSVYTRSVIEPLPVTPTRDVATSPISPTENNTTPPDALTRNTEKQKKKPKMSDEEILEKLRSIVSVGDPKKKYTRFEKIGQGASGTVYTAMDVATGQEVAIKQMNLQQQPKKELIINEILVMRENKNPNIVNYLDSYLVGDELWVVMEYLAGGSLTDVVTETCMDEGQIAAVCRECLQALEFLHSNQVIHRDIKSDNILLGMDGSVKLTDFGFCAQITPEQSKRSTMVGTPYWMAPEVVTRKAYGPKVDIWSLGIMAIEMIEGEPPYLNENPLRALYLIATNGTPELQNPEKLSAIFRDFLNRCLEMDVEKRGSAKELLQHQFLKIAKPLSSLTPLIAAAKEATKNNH
compound,measurement,setting,value
CC(C)Nc1sc(C(=O)c2ccc(Cl)s2)c(N)c1C#N,Activity,[1],84%
same,Activity,[2],97%
same,Activity,[3],97%
same,Activity,[4],96%
same,Activity,[5],74%
same,Activity,[6],94%
same,Activity,[7],100%
same,Activity,[8],100%
same,Activity,[9],91%
same,Activity,[10],100%
same,Activity,[11],96%
same,Activity,[12],97%
same,Activity,[13],91%
same,Activity,[14],57%
same,Activity,[15],88%
same,Activity,[16],72%
same,Activity,[17],87%
same,Activity,[18],83%
same,Activity,[19],100%
same,Activity,[20],83%
same,Activity,[21],100%
same,Activity,[22],100%
same,Activity,[23],100%
same,Activity,[24],85%

# Source: ChEMBL document CHEMBL4330132, “5-Keto-3-cyano-2,4-diaminothiophenes as selective maternal embryonic leucine zipper kinase inhibitors” (Bioorg Med Chem Lett, 2019)
